In paper PMC7048748, “Anxiolytic Drug FGIN-1-27 Ameliorates Autoimmunity by Metabolic Reprogramming of Pathogenic Th17 Cells” (Scientific Reports, 2020):

Test system: Th17 cells
Assay: Lipidomics of Th17 cells
Format: cell-based, mouse
Design: key to nCE(16:0) / nCE(18:2) / nDCER(22:0) / nDCER[FA14:0] / nFFA(12:0) / nFFA(14:1) / nFFA(18:4) / nCE(22:0) / nCE(22:6) / nCE(24:1) / nCE[FA14:1] / nCE(12:0) / nCE[FA16:0] / nCE[FA17:0] / nCE[FA18:2] / nCE[FA22:6]: mole percent of each fatty acid within its lipid class
Description: Specific cholesterol precursors like desmosterol and oxysterols, such as 7β, 27-dihydroxycholesterol (7β, 27-OHC), have been identified as ligands for RORγt[21],[22] and shown to modulate Th17 differentiation. […] Next, we extended our studies to lipid metabolites and profiled the lipidome of Th17 cells treated with DMSO or FGIN-1-27.
(a) Quantitation of cholesterol esters, triacylglycerols (TAGs), phosphatidylethanolamine (PE) and phosphatidylcholine (PC) in Th17 cells 72 hours after treatment with FGIN-1-27. The error bars represent SD. (b) Heat map showing fatty acid composition (mole percent) for different lipid classes after treatment with FGIN-1-27. (c) Pie charts showing proportions of different fatty acid classes namely PUFAs, MUFAs, ODD and SFAs within the cholesterol esters. (d) Transcript analysis for CD5L 72 hours post treatment with FGIN-1-27. The error bars represent SD.
Th17 cells were differentiated from naïve purified CD4 T cells and treated with either FGIN-1-27 (10 µM) or DMSO during polarization. 10 million cells/treatment were harvested and snap frozen. […] The extracts were concentrated under nitrogen and reconstituted in 0.25 mL of dichloromethane:methanol (50:50) containing 10 mM ammonium acetate. The extracts were placed in vials for infusion-MS analyses, performed on a SelexION equipped Sciex 5500 QTRAP using both positive and negative mode electrospray. Each sample was subjected to 2 analyses, with IMS-MS conditions optimized for lipid classes monitored in each analysis. The 5500 QTRAP was operated in MRM mode to monitor the transitions for over 1,100 lipids from up to 14 lipid classes. Individual lipid species were quantified based on the ratio of signal intensity for target compounds to the signal intensity for an assigned internal standard of known concentration. Lipid class concentrations were calculated from the sum of all molecular species within a class, and fatty acid compositions were determined by calculating the proportion of individual fatty acids within each class.

## CCCCCCN(CCCCCC)C(=O)Cc1c(-c2ccc(F)cc2)[nH]c2ccccc12 [FGIN-1-27, N, N-di-n-hexyl 2-(4-fluorophenyl) indole-3-acetamide]
72 hours, 10 µM
  down-regulation of cholesterol esters: 5 folds
  reduction in triacylglycerides (TAGs): 2 fold
Fig. 6c pie chart
  MUFA proportion within the cholesterol esters: 39%
  ODD proportion within the cholesterol esters: 10%
  PUFA proportion within the cholesterol esters: 14%
  SFA proportion within the cholesterol esters: 37%
Th17 cells, 10 µM
  nCE: 0.3432
  nCE(12:0): 0.3209
  nCE(14:0): 7.863
  nCE(14:1): 0.8946
  nCE(15:0): 6.739
  nCE(16:0): 20.165
  nCE(16:1): 5.753
  nCE(17:0): 3.887
  nCE(18:0): 9.753
  nCE(18:1): 25.3604
  nCE(18:2): 6.676
  nCE(18:3): 0.6485
  nCE(18:4): 0.0392
  nCE(20:0): 0.838
  nCE(20:1): 1.913
  nCE(20:2): 0.3245
  nCE(20:3): 0.8988
  nCE(20:4): 3.812
  nCE(20:5): 0.1401
  nCE(22:0): 0.2674
  nCE(22:1): 0.4486
  nCE(22:2): 0.3494
  nCE(22:4): 0.2548
  nCE(22:5): 0.2179
  nCE(22:6): 0.5711
  nCE(24:0): 0.624
  nCE(24:1): 1.24
  nCER: 0.6286
  nCER(14:0): 0.8623
  nCER(16:0): 27.3543
  nCER(18:0): 2.572
  nCER(18:1): 0.1145
  nCER(20:0): 2.068
  nCER(20:1): 0.05342
  nCER(22:0): 7.074
  nCER(22:1): 0.4579
  nCER(24:0): 30.2198
  nCER(24:1): 28.2356
  nCER(26:0): 0.4655
  nCER(26:1): 0.5227
  nCER[FA14:0]: 0.8623
  nCER[FA16:0]: 27.3543
  nCER[FA18:0]: 2.572
  nCER[FA18:1]: 0.1145
  nCER[FA20:0]: 2.068
  nCER[FA20:1]: 0.05342
  nCER[FA22:0]: 7.074
  nCER[FA22:1]: 0.4579
  nCER[FA24:0]: 30.2198
  nCER[FA24:1]: 28.2356
  nCER[FA26:0]: 0.4655
  nCER[FA26:1]: 0.5227
  nCE[FA12:0]: 0.3209
  nCE[FA14:0]: 7.863
  nCE[FA14:1]: 0.8946
  nCE[FA15:0]: 6.739
  nCE[FA16:0]: 20.165
  nCE[FA16:1]: 5.753
  nCE[FA17:0]: 3.887
  nCE[FA18:0]: 9.753
  nCE[FA18:1]: 25.3604
  nCE[FA18:2]: 6.676
  nCE[FA18:3]: 0.6485
  nCE[FA18:4]: 0.0392
  nCE[FA20:0]: 0.838
  nCE[FA20:1]: 1.913
  nCE[FA20:2]: 0.3245
  nCE[FA20:3]: 0.8988
  nCE[FA20:4]: 3.812
  nCE[FA20:5]: 0.1401
  nCE[FA22:0]: 0.2674
  nCE[FA22:1]: 0.4486
  nCE[FA22:2]: 0.3494
  nCE[FA22:4]: 0.2548
  nCE[FA22:5]: 0.2179
  nCE[FA22:6]: 0.5711
  nCE[FA24:0]: 0.624
  nCE[FA24:1]: 1.24
  nDAG: 2.149
  nDAG(12:0/16:0): 0.1725
  nDAG(12:0/18:0): 0.3066
  nDAG(12:0/18:1): 0.3287
  nDAG(12:0/18:2): 0.07889
  nDAG(14:0/14:0): 0.8017
  nDAG(14:0/16:0): 9.103
  nDAG(14:0/16:1): 1.239
  nDAG(14:0/18:1): 2.636
  nDAG(14:0/18:2): 0.1578
  nDAG(14:0/18:3): 0.01025
  nDAG(14:0/20:0): 0.2618
  nDAG(14:0/20:4): 0.02818
  nDAG(14:0/22:6): 0.05137
  nDAG(14:1/16:0): 0.2729
  nDAG(14:1/18:1): 0.217
  nDAG(15:0/18:1): 0.2893
